Results on 1 compound are retold here after article PMC9317966, “Structure-function analysis of the AMPK activator SC4 and identification of a potent pan AMPK activator” (Biochemical Journal, 2022).

Holding throughout (assay): Radiolabel SAMS kinase assay, immobilised GST-AMPK
Holding throughout (assay type): biochemical
Common to all, as to conditions: 1 µM compound

One assay concerns the target T1, human GST-AMPK α1β2γ3 (Homo sapiens, UniProt O43741+Q13131).
T1 construct: triply transfected with full-length AMPK α1 or α2 (NH2-terminal GST fusion, pDEST27 vector); full-length AMPK α1 or α2 (NH2-terminal GST fusion, pDEST27 vector), β1 or β2 (COOH-terminal FLAG fusion, pcDNA3.1 vector); FLAG (C); made in house; host or cells: HEK293T/17 cells, transient triple transfection
An excerpt: (§1) We generated a series of compounds to investigate whether modification of the SC4 2-hydroxybiphenyl LHS fragment affects isoform selectivity, some of which (MSG008-MSG011) are presented in Table 1. We also synthesised compound MSG012 (example I-3-54 [32]), which was reported to activate α2β2γ1 with ∼100-fold greater potency compared with α1β1γ1. MSG012 differs from SC4 by substitution of the 2-hydroxyphenyl LHS fragment with 3-cyclohexen-4-yl-1-carboxylic acid, and 2-methylbenzoic acid RHS fragment with 1-hydroxy-N,N-dimethylcyclohexan-4-yl-1-carboxamide. Our initial screen involved measuring the activity of recombinant human GST-AMPK complexes expressed in HEK293T/17 cells and immobilised on glutathione-Sepharose (Supplementary Figure S1). Enzyme activity was measured by radiolabelling the synthetic SAMS peptide substrate in the absence or presence of 1 µM compound. Consistent with our previous characterisation, SC4 activated α1β1γ1, α2β1γ1 and α2β2γ1 >2.3-fold, and weakly activated α1β2γ1 1.3-fold (Figure 1A). […] The γ isoform had little influence on AMPK activation by MSG011 as most γ2 and γ3 complexes were activated >2.2-fold at 1 µM, with α1β2γ2 being the only exception (1.6-fold activation). […] Accordingly, MSG010, MSG011 and MSG012 can be classified as pan AMPK activators.
(§2) Adherent HEK293T/17 cells at ∼50% confluency were triply transfected with full-length AMPK α1 or α2 (NH2-terminal GST fusion, pDEST27 vector), β1 or β2 (COOH-terminal FLAG fusion, pcDNA3.1 vector), and γ1, γ2 or γ3 (NH2-terminal HA fusion, pMT2 vector) in the presence of FuGENE HD transfection reagent (Promega) as per the manufacturers protocol. Cells were harvested 48 hours post-transfection by first gently washing in ice cold phosphate buffered saline (PBS; Sigma–Aldrich), then scraping in ice cold lysis buffer (50 mM TRIS pH 7.5, 150 mM NaCl, 10% (v/v) glycerol, 50 mM NaF, 5 mM sodium pyrophosphate, 1% (v/v) Triton X-100, cOmplete protease inhibitor cocktail). Lysates were clarified by centrifugation (16 000g, 3 min, 4°C), flash frozen in liquid N2 and stored at −80°C until analysis. For radioactive kinase assays, AMPK was immobilised on glutathione Sepharose 4B resin (GE Healthcare) by incubation with lysates for 1.5 h at 4°C. Following centrifugation (1000g, 3 min, 4°C), the resin was washed twice in purification buffer (50 mM HEPES pH 7.4, 150 mM NaCl, 10% (v/v) glycerol, 0.02% (v/v) Tween-20), once in 50 mM HEPES pH 7.4 with 0.02% (v/v) Tween-20, then resuspended to a 50% slurry with 50 mM HEPES pH 7.4 and 10 µl added to the activity assays. For in solution kinase assays, α1β1γ1 AMPK was eluted from glutathione-Sepharose by incubating with purification buffer supplemented with 40 mM reduced glutathione (Sigma–Aldrich).
(§3) AMPK activity was determined by phosphorylation of the SAMS peptide (Purar Chemicals, sequence: NH2-HMRSAMSGLHLVKRR-COOH) in a 25 µl reaction volume containing 100 µM SAMS peptide, 5 mM MgCl2, 200 µM ATP, [γ-^32P]-ATP (PerkinElmer) and assay buffer (50 mM HEPES pH 7.4, 1 mM DTT and 0.02% (v/v) Tween-20) and purified AMPK. Phosphotransferase activity was conducted at 30°C for 10 min and reactions were quenched by spotting 15 µl onto phosphocellulose ion-exchange chromatography paper (made in-house), followed by repeated washes in 1% H3PO4 (Merck Millipore). Ultima Gold liquid scintillation fluid (5 ml; PerkinElmer) was added to vials containing dried phosphocellulose papers, and the level of ^32P-transfer to the SAMS peptide was determined using a Tri-Carb 2900TR liquid scintillation counter (PerkinElmer).

Another assay concerns the target T2, human GST-AMPK α2β2γ3 (Homo sapiens, UniProt O43741+P54646).
T2 construct: triply transfected with full-length AMPK α1 or α2 (NH2-terminal GST fusion, pDEST27 vector); full-length AMPK α1 or α2 (NH2-terminal GST fusion, pDEST27 vector), β1 or β2 (COOH-terminal FLAG fusion, pcDNA3.1 vector); FLAG (C); made in house; host or cells: HEK293T/17 cells, transient triple transfection
Excerpt: as §1, §2, §3

In another assay the target is T3, human GST-AMPK α2β1γ2 (Homo sapiens, UniProt P54646+Q9Y478).
T3 construct: triply transfected with full-length AMPK α1 or α2 (NH2-terminal GST fusion, pDEST27 vector); full-length AMPK α1 or α2 (NH2-terminal GST fusion, pDEST27 vector), β1 or β2 (COOH-terminal FLAG fusion, pcDNA3.1 vector); FLAG (C); made in house; host or cells: HEK293T/17 cells, transient triple transfection
T3 sequence (P54646 whole entry, the tested form may be a part): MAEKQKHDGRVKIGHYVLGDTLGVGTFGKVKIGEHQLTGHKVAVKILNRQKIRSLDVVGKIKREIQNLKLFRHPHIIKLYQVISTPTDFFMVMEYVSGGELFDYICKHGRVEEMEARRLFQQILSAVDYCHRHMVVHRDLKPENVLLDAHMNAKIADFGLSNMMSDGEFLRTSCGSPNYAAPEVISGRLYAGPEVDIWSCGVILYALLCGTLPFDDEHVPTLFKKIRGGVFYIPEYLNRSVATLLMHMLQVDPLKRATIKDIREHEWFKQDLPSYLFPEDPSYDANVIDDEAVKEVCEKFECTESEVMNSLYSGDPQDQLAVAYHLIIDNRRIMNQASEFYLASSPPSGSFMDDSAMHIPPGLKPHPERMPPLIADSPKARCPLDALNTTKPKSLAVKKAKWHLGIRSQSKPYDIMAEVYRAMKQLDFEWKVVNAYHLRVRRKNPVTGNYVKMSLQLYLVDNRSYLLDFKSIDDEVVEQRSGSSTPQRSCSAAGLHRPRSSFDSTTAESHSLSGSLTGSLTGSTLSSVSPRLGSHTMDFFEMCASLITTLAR
T3 sequence (Q9Y478 whole entry, the tested form may be a part): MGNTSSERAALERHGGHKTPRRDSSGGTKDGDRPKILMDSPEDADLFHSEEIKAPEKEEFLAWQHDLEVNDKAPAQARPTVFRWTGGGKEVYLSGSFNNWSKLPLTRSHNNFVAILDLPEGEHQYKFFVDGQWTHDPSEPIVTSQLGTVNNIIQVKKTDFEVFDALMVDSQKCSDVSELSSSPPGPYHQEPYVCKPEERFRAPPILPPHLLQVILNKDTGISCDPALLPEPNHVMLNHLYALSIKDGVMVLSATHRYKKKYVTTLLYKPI
T3 sequence (Q9UGJ0 whole entry partner, the tested form may be a part): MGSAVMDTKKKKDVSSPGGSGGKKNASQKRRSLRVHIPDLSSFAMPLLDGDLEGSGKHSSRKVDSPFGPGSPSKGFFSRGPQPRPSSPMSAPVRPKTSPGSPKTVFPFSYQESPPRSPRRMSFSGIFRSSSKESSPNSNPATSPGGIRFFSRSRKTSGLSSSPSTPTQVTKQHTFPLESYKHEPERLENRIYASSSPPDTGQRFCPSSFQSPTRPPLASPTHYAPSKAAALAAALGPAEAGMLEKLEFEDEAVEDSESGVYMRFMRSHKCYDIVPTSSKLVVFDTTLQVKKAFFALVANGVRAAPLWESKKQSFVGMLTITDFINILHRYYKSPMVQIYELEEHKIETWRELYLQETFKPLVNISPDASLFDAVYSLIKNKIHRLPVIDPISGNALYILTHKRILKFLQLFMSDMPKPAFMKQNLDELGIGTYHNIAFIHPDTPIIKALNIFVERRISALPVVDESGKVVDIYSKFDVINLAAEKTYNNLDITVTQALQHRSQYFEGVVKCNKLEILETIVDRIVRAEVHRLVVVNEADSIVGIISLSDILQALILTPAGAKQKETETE
Excerpt: as §1, §2, §3

Another assay deals with T4, human GST-AMPK α1β2γ2 (Homo sapiens, UniProt O43741+Q13131).
T4 construct: triply transfected with full-length AMPK α1 or α2 (NH2-terminal GST fusion, pDEST27 vector); full-length AMPK α1 or α2 (NH2-terminal GST fusion, pDEST27 vector), β1 or β2 (COOH-terminal FLAG fusion, pcDNA3.1 vector); FLAG (C); made in house; host or cells: HEK293T/17 cells, transient triple transfection
T4 sequence (Q13131 whole entry, the tested form may be a part): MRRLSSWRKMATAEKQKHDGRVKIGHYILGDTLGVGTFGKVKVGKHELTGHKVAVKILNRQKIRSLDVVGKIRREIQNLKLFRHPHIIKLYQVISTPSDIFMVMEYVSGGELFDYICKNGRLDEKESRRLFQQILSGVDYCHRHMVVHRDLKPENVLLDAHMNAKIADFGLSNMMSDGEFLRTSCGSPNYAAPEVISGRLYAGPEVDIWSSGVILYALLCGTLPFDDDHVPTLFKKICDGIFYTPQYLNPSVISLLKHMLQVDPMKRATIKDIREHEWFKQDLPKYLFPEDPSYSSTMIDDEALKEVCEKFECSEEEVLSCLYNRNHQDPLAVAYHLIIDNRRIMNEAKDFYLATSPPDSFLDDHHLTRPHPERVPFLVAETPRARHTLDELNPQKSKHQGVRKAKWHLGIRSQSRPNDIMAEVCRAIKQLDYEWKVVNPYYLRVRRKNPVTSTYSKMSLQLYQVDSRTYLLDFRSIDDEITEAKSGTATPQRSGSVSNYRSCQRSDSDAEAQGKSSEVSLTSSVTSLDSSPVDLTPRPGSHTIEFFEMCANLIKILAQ
T4 sequence (O43741 whole entry, the tested form may be a part): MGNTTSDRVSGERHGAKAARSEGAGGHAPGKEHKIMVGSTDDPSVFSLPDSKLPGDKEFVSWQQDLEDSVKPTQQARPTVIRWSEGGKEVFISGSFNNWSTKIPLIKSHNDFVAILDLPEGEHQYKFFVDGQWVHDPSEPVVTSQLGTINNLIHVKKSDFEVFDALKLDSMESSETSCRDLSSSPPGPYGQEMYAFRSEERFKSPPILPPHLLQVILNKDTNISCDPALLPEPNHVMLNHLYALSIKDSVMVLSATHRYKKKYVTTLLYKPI
T4 sequence (Q9UGJ0 whole entry partner, the tested form may be a part): as the sequence (Q9UGJ0 whole entry partner, the tested form may be a part) above
Excerpt: as §1, §2, §3

A further assay addresses T5, human GST-AMPK α1β1γ3 (Homo sapiens, UniProt Q13131+Q9Y478).
T5 construct: triply transfected with full-length AMPK α1 or α2 (NH2-terminal GST fusion, pDEST27 vector); full-length AMPK α1 or α2 (NH2-terminal GST fusion, pDEST27 vector), β1 or β2 (COOH-terminal FLAG fusion, pcDNA3.1 vector); FLAG (C); made in house; host or cells: HEK293T/17 cells, transient triple transfection
Excerpt: as §1, §2, §3

A further assay addresses T6, human GST-AMPK α1β1γ2 (Homo sapiens, UniProt Q13131+Q9Y478).
T6 construct: triply transfected with full-length AMPK α1 or α2 (NH2-terminal GST fusion, pDEST27 vector); full-length AMPK α1 or α2 (NH2-terminal GST fusion, pDEST27 vector), β1 or β2 (COOH-terminal FLAG fusion, pcDNA3.1 vector); FLAG (C); made in house; host or cells: HEK293T/17 cells, transient triple transfection
Excerpt: as §1, §2, §3

In another assay the target is T7, human GST-AMPK α2β1γ3 (Homo sapiens, UniProt P54646+Q9Y478).
T7 construct: triply transfected with full-length AMPK α1 or α2 (NH2-terminal GST fusion, pDEST27 vector); full-length AMPK α1 or α2 (NH2-terminal GST fusion, pDEST27 vector), β1 or β2 (COOH-terminal FLAG fusion, pcDNA3.1 vector); FLAG (C); made in house; host or cells: HEK293T/17 cells, transient triple transfection
T7 sequence (P54646 whole entry, the tested form may be a part): as the sequence (P54646 whole entry, the tested form may be a part) above
T7 sequence (Q9Y478 whole entry, the tested form may be a part): as the sequence (Q9Y478 whole entry, the tested form may be a part) above
T7 sequence (Q9UGI9 whole entry partner, the tested form may be a part): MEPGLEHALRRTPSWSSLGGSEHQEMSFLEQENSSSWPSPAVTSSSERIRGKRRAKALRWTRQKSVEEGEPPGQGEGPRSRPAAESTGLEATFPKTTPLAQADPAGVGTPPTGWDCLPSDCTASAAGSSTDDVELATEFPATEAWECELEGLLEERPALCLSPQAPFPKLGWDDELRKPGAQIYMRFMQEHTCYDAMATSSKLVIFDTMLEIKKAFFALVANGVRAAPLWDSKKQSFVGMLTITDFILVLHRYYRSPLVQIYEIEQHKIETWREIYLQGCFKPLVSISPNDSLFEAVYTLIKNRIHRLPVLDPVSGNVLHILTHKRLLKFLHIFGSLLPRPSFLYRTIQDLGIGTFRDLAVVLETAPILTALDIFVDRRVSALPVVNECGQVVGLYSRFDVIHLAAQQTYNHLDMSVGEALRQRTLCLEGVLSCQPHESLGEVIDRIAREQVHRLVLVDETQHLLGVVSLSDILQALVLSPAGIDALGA
Excerpt: as §1, §2, §3

For another assay, the target named is T8, human GST-AMPK α2β2γ2 (Homo sapiens, UniProt O43741+P54646).
T8 construct: triply transfected with full-length AMPK α1 or α2 (NH2-terminal GST fusion, pDEST27 vector); full-length AMPK α1 or α2 (NH2-terminal GST fusion, pDEST27 vector), β1 or β2 (COOH-terminal FLAG fusion, pcDNA3.1 vector); FLAG (C); made in house; host or cells: HEK293T/17 cells, transient triple transfection
T8 sequence (P54646 whole entry, the tested form may be a part): as the sequence (P54646 whole entry, the tested form may be a part) above
T8 sequence (O43741 whole entry, the tested form may be a part): as the sequence (O43741 whole entry, the tested form may be a part) above
T8 sequence (Q9UGJ0 whole entry partner, the tested form may be a part): as the sequence (Q9UGJ0 whole entry partner, the tested form may be a part) above
Excerpt: as §1, §2, §3

Each structure is given as a SMILES string.

T6 sequence (Q13131 whole entry, the tested form may be a part): as the sequence (Q13131 whole entry, the tested form may be a part) above
T6 sequence (Q9Y478 whole entry, the tested form may be a part): as the sequence (Q9Y478 whole entry, the tested form may be a part) above
T6 sequence (Q9UGJ0 whole entry partner, the tested form may be a part): as the sequence (Q9UGJ0 whole entry partner, the tested form may be a part) above
T5 sequence (Q13131 whole entry, the tested form may be a part): as the sequence (Q13131 whole entry, the tested form may be a part) above
T5 sequence (Q9Y478 whole entry, the tested form may be a part): as the sequence (Q9Y478 whole entry, the tested form may be a part) above
T5 sequence (Q9UGI9 whole entry partner, the tested form may be a part): as the sequence (Q9UGI9 whole entry partner, the tested form may be a part) above
T1 sequence (Q13131 whole entry, the tested form may be a part): as the sequence (Q13131 whole entry, the tested form may be a part) above
T1 sequence (O43741 whole entry, the tested form may be a part): as the sequence (O43741 whole entry, the tested form may be a part) above
T1 sequence (Q9UGI9 whole entry partner, the tested form may be a part): as the sequence (Q9UGI9 whole entry partner, the tested form may be a part) above
T2 sequence (P54646 whole entry, the tested form may be a part): as the sequence (P54646 whole entry, the tested form may be a part) above
T2 sequence (O43741 whole entry, the tested form may be a part): as the sequence (O43741 whole entry, the tested form may be a part) above
T2 sequence (Q9UGI9 whole entry partner, the tested form may be a part): as the sequence (Q9UGI9 whole entry partner, the tested form may be a part) above

As to `CC(=O)NC1CC=C(c2ccc(-c3nc4nc(Oc5ccc(C)c(C(=O)O)c5)[nH]c4cc3Cl)cc2)CC1` (centres unmarked) [MSG011, 5-((5-(4′-Acetamido-2′,3′,4′,5′-tetrahydro-[1,1′-biphenyl]-4-yl)-6-chloro-1H-imidazo[4,5-b]pyridin-2-yl)oxy)-2-methylbenzoic acid], the “fold AMPK activation relative to vehicle” value on human GST-AMPK α1β2γ3 is over 2.2 fold; on human GST-AMPK α2β2γ3, over 2.2 fold; at human GST-AMPK α2β1γ2, over 2.2 fold; at human GST-AMPK α1β2γ2, 1.6 fold; on human GST-AMPK α1β1γ3 it was over 2.2 fold; on human GST-AMPK α1β1γ2, over 2.2 fold. Further, the “fold AMPK activation relative to vehicle” value on human GST-AMPK α2β1γ3 and at human GST-AMPK α2β2γ2 was over 2.2 fold throughout.
